In assay [1] the test system is isolated rat adipocytes. The assay is described as follows: Glucose (2-deoxyglucose) transport in isolated rat adipocytes. The class given is cell-based, Wistar rats. The following applies: for effect of semicarbazide on the stimulation of glucose transport: 1 mM semicarbazide; for stimulation of glucose transport (2-DG uptake), in words: 45 min incubation. The protocol: FIG. 1 is a graphical illustration of the hexaquis(benzylammonium) decavanadate effects on glucose transport in isolated rat adipocytes. In this Figure, V corresponds to the rate of 2-deoxyglucose transport (expressed relative to the basal rate), and the results are mean +standard error of the mean (SEM). The adipocytes were incubated in the absence of stimulants in the following conditions: basal (1); in the presence of 100 nM insulin (2); in the presence of hexaquis(benzylammonium) decavanadate at concentrations of 0.5 μM (3), 1 μM (4), 2.5 μM (5), 5 μM (6), 10 μM (7), 25 μM (8), 50 μM (9), and 100 μM (10). The cells were also incubated in the presence of the semicarbazide inhibitor (1 mM), and 10 μM hexaquis(benzylammonium) decavanadate (11), 25 μM of hexaquis(benzylammonium) decavanadate (12) or 50 μM hexaquis(benzylammonium) decavanadate (13). In parallel, the cells were incubated in presence of 100 μM of sodium vanadate and 100 μM of benzylamine, in the absence (14) or in the presence of 1 mM of semicarbazide (15).
FIG. 2 is a graphical illustration of the effects of hexaquis(benzylammonium) decavanadate, pentaquis(benzylammonium) decavanadate and tetraquis(benzylammonium) decavanadate on glucose transport in isolated rat adipocytes. V corresponds to the rate of 2-deoxyglucose uptake (expressed as relation with basal group), and the results are mean +standard error mean. The adipocytes were incubated in the absence of stimulants in the following conditions: basal (1); in the presence of 100 nM of insulin (2); in the presence of hexaquis(benzylammonium) decavanadate at concentrations of 10 μM (3) and 25 μM (4), pentaquis(benzylammonium) decavanadate at concentrations of 10 μM (8) and 25 μM (9), and tetraquis(benzylammonium) decavanadate at concentrations of 10 μM (11) and 25 μM (12). The cells were also incubated in the presence of the semicarbazide inhibitor (1 mM) and, 25 μM of hexaquis(benzylammonium) decavanadate (5), 25 μM of pentaquis(benzylammonium) decavanadate (10) or 25 μM of tetraquis(benzylammonium) decavanadate (13). In parallel, the cells were incubated in the presence of 100 μM of sodium vanadate (6) or in the presence of 250 μM of sodium vanadate (7).
Adipose cells from Wistar rats were incubated for 45 minutes in basal conditions (Basal) or in the presence of 100 nM insulin (Ins) and different concentrations of. hexaquis(benzylammonium) decavanadate (B6V10) in the absence or in the presence of 1 mM semicarbazide (SCZ). Subsequently, 2-DG transport was measured over a 5 min. interval.
The effects of the three tested compounds (B6V10, B5V10 and B4V10) were compared. Adipose cells from Wistar rats were incubated for 45 minutes in basal conditions (Basal) or in the presence of 100 nM insulin (Ins), and different concentrations of decavanadate (V10), hexaquis(benzylammonium) decavanadate (B6V10), pentaquis(benzylammonium) decavanadate (B5V10) or tetraquis(benzylammonium) decavanadate (B4V10) in the absence or in the presence of 1 mM semicarbazide (SCZ). 2-DG transport was measured over 5 min. intervals.
In additional experiments, compounds shown in FIG. 6A, 2-(4-fluoro-phenyl)ethylamine (compound A), 3-phenylpropylamine (compound B), 4-fluoro-benzylamine (compound C) and 4-phenylbutylamine (compound D) were assessed using the experimental methods set forth above for the capacity to stimulate 2-DG uptake in isolated rat adipocytes. Adipose cells from Wistar rats were incubated for 45 minutes in basal conditions (Basal) or in the presence of 100 nM insulin (Ins), and different concentrations of vanadium salts of 2-(4-fluoro-phenyl)-ethylamine (compound A), 3-phenyl-propylamine (compound B), 4-fluoro-benzylamine (compound C) and 4-phenyl-butylamine (compound D). 2-DG transport was measured over 5 min.
The effects of incubation with semicarbazide or phosphatidylinositol 3-kinase inhibitors were also investigated. […]

The target of assay [2] is T1, Human SSAO/VAP-1 (Homo sapiens, UniProt Q16853).
T1 sequence (Q16853 1-763): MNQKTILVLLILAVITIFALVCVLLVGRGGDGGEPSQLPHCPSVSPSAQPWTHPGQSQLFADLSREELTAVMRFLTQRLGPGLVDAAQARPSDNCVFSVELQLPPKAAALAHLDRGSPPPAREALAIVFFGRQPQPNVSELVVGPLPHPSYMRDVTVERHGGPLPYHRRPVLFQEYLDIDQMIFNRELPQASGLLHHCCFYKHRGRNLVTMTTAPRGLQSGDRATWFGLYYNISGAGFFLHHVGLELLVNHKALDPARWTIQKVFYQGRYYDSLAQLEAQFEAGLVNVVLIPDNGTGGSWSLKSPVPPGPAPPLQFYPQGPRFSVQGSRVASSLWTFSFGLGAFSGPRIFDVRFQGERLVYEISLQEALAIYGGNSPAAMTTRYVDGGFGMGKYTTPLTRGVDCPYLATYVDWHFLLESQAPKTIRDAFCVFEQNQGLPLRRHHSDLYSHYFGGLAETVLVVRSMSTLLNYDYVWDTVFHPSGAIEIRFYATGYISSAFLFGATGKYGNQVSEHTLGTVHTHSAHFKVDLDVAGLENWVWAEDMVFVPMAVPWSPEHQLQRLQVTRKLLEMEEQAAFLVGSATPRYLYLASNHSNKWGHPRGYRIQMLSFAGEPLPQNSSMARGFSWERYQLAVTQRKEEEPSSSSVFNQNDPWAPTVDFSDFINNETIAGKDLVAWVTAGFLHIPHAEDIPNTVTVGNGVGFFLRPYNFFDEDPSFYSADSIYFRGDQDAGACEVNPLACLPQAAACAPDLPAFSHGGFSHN
The assay is described as follows: Fluorimetric detection of SSAO-mediated H2O2 formation (Amplex Red), human recombinant VAP-1. It counts as biochemical. As to conditions: production of hydrogen peroxide; compounds at 1 mM. How it is done: (§1) The SSAO activity of human recombinant VAP-1 (0.1 μg prot/assay) and mouse adipose tissue membranes (1 μg prot/assay) was measured using Amplex Red Reagent, a highly sensitive and stable probe for H2O2. The reaction was performed in 200 μL of 0.2 mol/l phosphate buffer at pH 7.4 for 50 min at 37° C. in black non-phosphorescent microplates (Nunc). Catalytic reaction was initiated by the addition of the amines indicated as putative SSAO substrates and H2O2-detecting mixture containing horseradish peroxidase and Amplex Red, as previously described. Fluorescence intensity was measured (excitation, 545 nm, 590 nm, Bio-Tek fluorescence plate reader) and H2O2 concentration was calculated form calibration curves generated by serial dilutions of standard H2O2. Fluorescence readings were performed every 5 min. […] To test amines as putative SSAO inhibitors, they were pre-incubated for 20 min with semicarbazide, and their percentage of inhibition was calculated by referring to SSAO activity produced by benzylamine. The kinetic parameters Km and Vmax were calculated using appropriate non-linear curve-fitting formula based on the Michaelis-Menten equation and using GraphPad Prism 4.0 software.

The target in assay [3] is T2, Mouse SSAO/VAP-1 (Mus musculus, UniProt O70423).
T2 construct: from tissue; host or cells: internal adipose tissue membranes of Swiss mice
T2 sequence (O70423 1-765): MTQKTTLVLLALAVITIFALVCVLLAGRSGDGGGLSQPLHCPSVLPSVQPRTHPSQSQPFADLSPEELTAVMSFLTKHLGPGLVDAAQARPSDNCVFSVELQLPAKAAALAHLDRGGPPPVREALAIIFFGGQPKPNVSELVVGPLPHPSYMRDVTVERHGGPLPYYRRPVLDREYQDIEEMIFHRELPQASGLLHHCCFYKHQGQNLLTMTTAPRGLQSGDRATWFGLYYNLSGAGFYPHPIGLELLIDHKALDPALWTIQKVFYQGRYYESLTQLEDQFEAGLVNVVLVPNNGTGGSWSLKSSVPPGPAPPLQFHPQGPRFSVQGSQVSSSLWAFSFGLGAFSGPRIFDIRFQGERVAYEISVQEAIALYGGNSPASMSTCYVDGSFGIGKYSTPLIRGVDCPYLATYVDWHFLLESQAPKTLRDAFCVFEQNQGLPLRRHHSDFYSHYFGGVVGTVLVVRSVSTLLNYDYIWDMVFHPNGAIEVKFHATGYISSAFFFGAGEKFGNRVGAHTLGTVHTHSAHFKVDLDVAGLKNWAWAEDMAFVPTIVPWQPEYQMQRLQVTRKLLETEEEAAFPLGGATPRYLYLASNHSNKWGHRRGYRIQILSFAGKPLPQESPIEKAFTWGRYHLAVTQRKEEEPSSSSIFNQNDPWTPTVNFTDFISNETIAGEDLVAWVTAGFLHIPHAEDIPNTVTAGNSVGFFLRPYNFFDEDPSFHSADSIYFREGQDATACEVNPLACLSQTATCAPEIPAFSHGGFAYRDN
The assay is described as follows: Fluorimetric detection of SSAO-mediated H2O2 formation (Amplex Red), mouse adipose tissue membranes. The following applies: production of hydrogen peroxide; compounds at 100 μM. It counts as biochemical. The protocol:
Internal adipose tissue was obtained from Swiss mice weighing between 20 to […]. […] The lysates were then centrifuged at 5000 g at 4° C. for 15 min to eliminate the fat cake and non-homogenized material, and supernatants were collected and centrifuged at 200000 g for 2 h at 4° C. Pelleted membranes were resuspended in 30 mmol/l HEPES and stored at −80° C. until use. Protein concentrations were measured by the Bradford method with γ-globulin as standard.
as §1

We go through 16 compounds from patent US20080070987A1, “META-XYLYLENEDIAMINE VANADATE SALTS” (priority 2006, published 2008).

As for “pentaquis(benzylammonium) decavanadate [Example B5V10]”, in assay [1], the “effect of semicarbazide on the stimulation of glucose transport” value (“effect of semicarbazide” below) is on record as “blocked in the presence of semicarbazide” and the “stimulation of glucose transport (2-DG uptake), in words” value (shortened to “stimulation … in words”) is listed as “pronounced stimulation on glucose transport”. Besides, the “effect of semicarbazide” value in assay [1] (listed as pentaquis(benzylammonium) decavanadate) was “this effect was inhibited”.
As for `C=CCOC(=O)NCc1cccc(CN)c1` [Example 5, allyl 3-(aminomethyl)benzylcarbamate], the “Human SSAO/VAP-1 activity % relative to benzylamine” value in assay [2] is 21 ± 1%. Besides, the “Mouse SSAO/VAP-1 activity % relative to benzylamine” value in assay [3] was determined as 49 ± 3%.
The corresponding values for `Cc1ccc(S(=O)(=O)NCc2cccc(CN)c2)cc1` [Example 8, N-(3-(aminomethyl)benzyl)-4-methylbenzenesulfonamide] are 12 ± 2% and 14 ± 3%.
The corresponding values for `NCc1cccc(CNC(=O)c2ccccc2)c1` [Example 6, N-(3-(aminomethyl)benzyl)benzamide] are 17 ± 1% and 58 ± 4%.
For `NCc1cccc(CNC(=O)CI)c1` [Example 4, N-(3-(aminomethyl)benzyl)-2-iodoacetamide], in assay [2], the “Human SSAO/VAP-1 activity % relative to benzylamine” value stood at 38 ± 3%. For the same compound, the “Mouse SSAO/VAP-1 activity % relative to benzylamine” value in assay [3] is listed as 61 ± 5%.
In the case of `NCCc1ccc(F)cc1` [compound A, 2-(4-fluoro-phenyl)ethylamine], in assay [1], the “stimulation … in words” value is reported as “markedly stimulated glucose transport”.
Consider `NCc1ccc(C(=O)NCc2cccc(CN)c2)cc1` [Example 11, 4-(aminomethyl)-N-(3-(aminomethyl)benzyl)benzamide], for which, in assay [2], the “Human SSAO/VAP-1 activity % relative to benzylamine” value turned out to be 17 ± 2%. Besides, in assay [3], the “Mouse SSAO/VAP-1 activity % relative to benzylamine” value was found to be 12 ± 1%.
Take `CCC(=O)NCc1cccc(CN)c1` [Example 3, N-(3-(aminomethyl)benzyl)propionamide]: in assay [2], the “Human SSAO/VAP-1 activity % relative to benzylamine” value was determined as 4 ± 1%. For the same compound, in assay [3], the “Mouse SSAO/VAP-1 activity % relative to benzylamine” value was 27 ± 1%.
As to “tetraquis(benzylammonium) decavanadate [Example B4V10]”, the “effect of semicarbazide” value in assay [1] was “blocked in the presence of semicarbazide”; in assay [1] (listed as tetraquis(benzylammonium) decavanadate), “this effect was inhibited”. Besides, the “stimulation … in words” value in assay [1] is given as “pronounced stimulation on glucose transport”.
Take `NCc1cccc(CNC(=O)c2ccc(O)cc2)c1` [Example 10, N-(3-(aminomethyl)benzyl)-4-hydroxybenzamide]: in assay [2], the “Human SSAO/VAP-1 activity % relative to benzylamine” value turned out to be 5 ± 1%. Moreover, in assay [3], the “Mouse SSAO/VAP-1 activity % relative to benzylamine” value is reported as 26 ± 1%.
As for `NCc1ccc(F)cc1` [compound C, 4-fluoro-benzylamine], the “stimulation … in words” value in assay [1] was “markedly stimulated glucose transport”.
For the compound `NCc1cccc(CNC(=O)c2ccc(Br)cc2)c1` [Example 12, N-(3-(aminomethyl)benzyl)-4-bromobenzamide], the “Human SSAO/VAP-1 activity % relative to benzylamine” value in assay [2] was found to be 16 ± 2%. Besides, the “Mouse SSAO/VAP-1 activity % relative to benzylamine” value in assay [3] is 46 ± 1%.
Take `NCCCc1ccccc1` [compound B, 3-phenylpropylamine]: the “stimulation … in words” value in assay [1] is on record as “markedly stimulated glucose transport”.
`NCc1ccccc1` [Example 1, benzylamine, reference compound]: in assay [2], the “Human SSAO/VAP-1 activity % relative to benzylamine” value came to 100%. The “Mouse SSAO/VAP-1 activity % relative to benzylamine” value in assay [3] was 100%.
In the case of `NCCCCc1ccccc1` [compound D, 4-phenylbutylamine], the “stimulation … in words” value in assay [1] is given as “markedly stimulated glucose transport”.
For `CC(=O)N[C@H](C(=O)NCc1cccc(CN)c1)c1ccccc1` [Example 7, (S)-2-acetamido-N-(3-(aminomethyl)benzyl)-2-phenylacetamide], in assay [2], the “Human SSAO/VAP-1 activity % relative to benzylamine” value was determined as 2 ± 1%. Further, in assay [3], the “Mouse SSAO/VAP-1 activity % relative to benzylamine” value stood at 13 ± 3%.
